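All cell lines were grown in 96-well plates and treated with compound for 48 hours. At the GI50, growth is halved. TGI denotes the concentration required for complete inhibition of growth.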
Legend:
Experiment in all cases: growth of human tumour cells (NCI), 48 h
[1] = test system: 786-0 renal
[2] = test system: A549 NSCLC
[3] = test system: DU-145 prostate
[4] = test system: HCC-2998 colon
[5] = test system: HT29 colon
[6] = test system: M14 melanoma
[7] = test system: MOLT-4 leukemia
[8] = test system: OVCAR-3 ovarian
[9] = test system: SNB-75 CNS
[10] = test system: UO-31 renal

SMILES	GI50 [1]	TGI [1]	GI50 [2]	TGI [2]	GI50 [3]	TGI [3]	GI50 [4]	TGI [4]	GI50 [5]	TGI [5]	GI50 [6]	TGI [6]	GI50 [7]	TGI [7]	GI50 [8]	TGI [8]	GI50 [9]	TGI [9]	GI50 [10]	TGI [10]
N/C(=N\OC(=O)c1ccccc1)C(Cc1ccccc1)C(=O)NOC(=O)c1ccccc1 (stereo not drawn)	3.04 µM	8 µM	1.52 µM	3.22 µM	1.58 µM	3.07 µM	5.4 µM	19.7 µM	5.24 µM	18.5 µM	3.12 µM	10.8 µM	2.21 µM	5.85 µM	1.8 µM	4.1 µM	1.62 µM	3.41 µM	1.45 µM	3.07 µM
C[C@@H]1Cc2cc(O)ccc2[C@H]2CC[C@]3(C)/C(=C/COCCN(C)C)CC[C@H]3[C@H]12 (tested in a mixture with another compound)	0.198 µM	0.618 µM	0.0557 µM	0.193 µM	0.142 µM	0.276 µM	0.448 µM	1.65 µM	0.368 µM	1.2 µM	0.381 µM	1.44 µM	0.0833 µM	0.487 µM	0.18 µM	0.344 µM	0.235 µM	0.755 µM	0.221 µM	0.514 µM
Fc1ccc(/C=N/n2c(-c3ccc(F)c(Cl)c3)n[nH]c2=S)cc1	19.6 µM	38.3 µM	21.4 µM	46 µM	41.5 µM	> 100 µM	34.8 µM	> 100 µM	35.3 µM	> 100 µM	23.8 µM	71.6 µM	25.4 µM	94.6 µM	18.3 µM	37.3 µM	15.3 µM	30.1 µM	18.9 µM	41.5 µM
CSc1ccc(C2=NN(C(C)=O)C(c3ccc(-c4ccc(Cl)cc4)o3)C2)cc1 (stereo not drawn)	38.8 µM	> 100 µM	35.2 µM	> 100 µM	81 µM	> 100 µM	47.1 µM	> 100 µM	30.4 µM	> 100 µM	29.8 µM	> 100 µM	16.4 µM	97.3 µM	21 µM	80.9 µM	25.4 µM	> 100 µM	28.5 µM	> 100 µM
O=C1C(OCCOc2ccccc2)=C(OCCOc2ccccc2)C(=O)c2ccccc21	34.6 µM	> 100 µM	4.62 µM	> 100 µM	7.12 µM	> 100 µM	11.6 µM	> 100 µM	9.95 µM	> 100 µM			> 100 µM	> 100 µM	6.5 µM	> 100 µM	20.1 µM	> 100 µM	12.2 µM	> 100 µM
CN1CCN(CCCCCN=c2cc3c(=O)n(CCCCCN4CCN(C)CC4)c(=O)c4c(NCCCCCN5CCN(C)CC5)cc5c(O)n(CCCCCN6CCN(C)CC6)c(=O)c2c5c4-3)CC1	> 100 µM	> 100 µM	2.92 µM	8.64 µM	3.08 µM	10.3 µM	5.79 µM	24.4 µM	1.45 µM	5.31 µM	35 µM	> 100 µM	4.85 µM	> 100 µM	3.23 µM	9.92 µM	2.66 µM	10.2 µM	75 µM	> 100 µM
C[C@@H]1O[C@@H](O[C@@H]2[C@@H](O)[C@H](OCCc3ccc(O)c(O)c3)O[C@H](CO)[C@H]2OC(=O)/C=C/c2ccc(O)c(O)c2)[C@H](O)[C@H](OC2OC[C@](O)(CO)[C@H]2O)[C@H]1O (stereo partly drawn)	84.7 µM	> 100 µM	> 100 µM	> 100 µM	16.9 µM	48 µM					> 100 µM	> 100 µM	> 100 µM	> 100 µM	35 µM	> 100 µM	> 100 µM	> 100 µM	> 100 µM	> 100 µM
COc1cc2cc(Oc3ccc(NC(=O)c4ccc(Cl)c(Cl)c4)cc3)c(C)nc2cc1OC	> 100 µM	> 100 µM	> 100 µM	> 100 µM	> 100 µM	> 100 µM	> 100 µM	> 100 µM	7.89 µM	> 100 µM			6.12 µM	> 100 µM	9.34 µM	> 100 µM	> 100 µM	> 100 µM	8.44 µM	> 100 µM
C1CSCCSCCCSCCSCCCSCCSCCCSCCSC1		> 100 µM		> 100 µM		> 100 µM		> 100 µM		> 100 µM		> 100 µM		> 100 µM		> 100 µM				> 100 µM
O=c1c2cc(F)ccc2sc2c(NCCCNCCO)nc3ccccc3c12	1.53 µM	3.07 µM	1.79 µM	3.78 µM	1.72 µM	3.13 µM	1.69 µM	3.34 µM	1.75 µM	3.43 µM	1.87 µM	3.62 µM			1.9 µM	3.55 µM	1.5 µM	2.96 µM	1.57 µM	2.96 µM
C/C(=N\O)c1cccc(Nc2cc(-n3ccnc3)c3ccccc3n2)c1	12.2 µM	28.7 µM			18.9 µM	35.8 µM	17.3 µM	31.7 µM	14.7 µM	49.4 µM	11.6 µM	24.1 µM	12.6 µM	37.5 µM	14.7 µM	39.6 µM	11.4 µM	26.8 µM	13.8 µM	34.6 µM
Fc1cccc(F)c1C(Nc1nncs1)Nc1nncs1		> 100 µM		> 100 µM		> 100 µM		> 100 µM		> 100 µM		> 100 µM				> 100 µM		> 100 µM		> 100 µM
C[CH2][Hg][S]c1ccccc1C(=O)O	1.59 µM	2.95 µM	1.78 µM	3.94 µM	1.83 µM	3.41 µM	1.67 µM	3.08 µM			1.36 µM	2.74 µM	2.43 µM	6.7 µM	0.871 µM	2.09 µM	2.98 µM	10.8 µM	1.43 µM	2.79 µM
Cc1[nH]nc(-c2ccon2)c1N=O		39.2 µM		57.6 µM		41.2 µM				39.6 µM		43.5 µM		6.18 µM		33.7 µM		> 100 µM		46.6 µM

Source: PubChem BioAssay (NCI)
